According to patent US20090239944A1, “Novel Use of Organic Compounds” (priority 2005, published 2009):

Key:
C3H10T1/2 cells [1] = experiment: Glucose uptake of adipocytes (radioactive 2-deoxyglucose, basal, absence of insulin); type: cell-based; details: 48-h treatment; for Basal glucose uptake: absence of insulin, ± SEM, DMSO control = 100%; for Basal glucose uptake (result in words): different concentrations
Procedure: C3H10T1/2 cells (ATCC CCL-226) were grown for 5 days to confluence in DMEM supplemented with 10% FBS medium and induced with a mixture of insulin, dexamethasone and 3-isobutyl-1-methylxanthine to differentiate into adipocytes. Nine days after the beginning of induction, cells were treated for 48-h with the compound of the formula I-1 at different concentrations as shown in Table 1. Glucose uptake was determined using radioactive 2-deoxyglucose (10 μM 2-DG in HBS+0.5 μCi/ml of 3-[H]-2-DG), measuring glucose uptake in the absence of insulin. Basal glucose uptake was increased by 48-h treatment with the compound of the formula I-1 in a dose-dependent manner (Table 1). Growing, induction and treatment of C3H10T1/2 cells were exactly as described in Example 1, with the exception that the compound of the formula I-3 at different concentrations was used instead of the compound of the formula I-1. […] Control: C3H10T1/2 cells treated for 48 h with DMSO at the same concentration as compound-treated cells and set at 100%

C57BLKS/J db/db mice = experiment: Glucose tolerance, 14-day study in db/db mice (blood glucose, OGTT, FFA); type: in vivo
Procedure: The efficacy of the compound of the formula I-1 on glucose tolerance was tested in a 14-day study in C57BLKS/J db/db mice (n=10/group), a model of late type 2 diabetes mellitus with severe hyperglycemia.
Male db/db mice were obtained from Jackson Laboratory (Bar Harbor, Me., USA). Adult mice aged 8 weeks were used in the experiment. Mice were housed individually in plastic cages with bedding and allowed free access to standard rodent food and tap water. The animal rooms were controlled for temperature (24° C.), humidity (55%), and light (12-h light-dark cycle). The animals were randomized in two groups and the compound of the formula I-1 was administered orally to one of the groups for 14 days at a dose of 200 mg/kg BW/day. After 14 days of treatment the concentration of glucose was determined in blood from fed animals, i.e., animals which were not restricted from food. After a period of 10 days of treatment an oral glucose tolerance test (OGTT) was performed. For the OGTT mice were fasted overnight and then a 1-g glucose/kg BW solution was orally administered. Blood samples were taken before and 15, 30, 45, 60, 90, 120, 150, 180 min after the glucose challenge for determination of blood glucose levels and then the area under the curve (AUC) was determined. Blood glucose was measured by a glucose analyzer (Glucotrend Premium, Roche Diagnostics, Rotkreuz, Switzerland). The glucose and the free fatty acid (FFA) levels of fed animals (see above) were lowered after 14 days of treatment with the compound of the formula I-1. After 10 days of treatment with the compound of the formula I-1 the glucose levels of fasted animals, i.e., animals with an overnight fasting (see above) were decreased as compared to the untreated control group.

C3H10T1/2 cells [2] = experiment: Differentiation of adipocytes (oil Red O staining, absorbance at 540 nm); type: cell-based; details: for Differentiation of the cells into adipocytes (result in words): co-treatment with insulin, compared with insulin alone; for Mean OD ± SEM (oil Red O, 540 nm): 10-day treatment
Procedure: C3H10T1/2 cells were grown to confluence as described in Example 1, then treated for 10 days with insulin alone (negative control) or with a mixture of insulin and the compound of the formula I-1 at different concentrations (see Table 2), with re-feeding with fresh medium and compounds every 48-h. After 10-days of treatment, the cells were stained with oil Red O as follows: cells were washed 2× in PBS and fixed in 10% formalin at room temperature for 1 h. After removal of formalin, 200 μl of oil Red O staining solution (3:2 mixture of 0.5% w/v oil Red O stock solution and water) was applied to each well. The cells were incubated for 20 min at room temperature, washed twice in 2×PBS and incubated for 10 min with 300 μl of isopropanol/well for oil Red O extraction. Quantification of oil Red O was determined by measuring absorbance at 540 nm (mean OD). […] C3H10T1/2 cells were grown and treated as described in Example 4 with the exception that the compound of the formula I-2 was used instead of the compound of the formula I-1. The measurement of adipocyte differentiation using the oil Red O assay was performed as described in Example 4. […] C3H10T1/2 cells were grown and treated as described in Example 4 with the exception that the compound of the formula I-3 was used instead of the compound of the formula I-1. The measurement of adipocyte differentiation using the oil Red O assay was performed as described in Example 4.

[3] = after 14 days of treatment, 200 mg/kg BW/day orally
[4] = compound 1 × 10^−5 M + insulin 1 × 10^−7 M

CC1(COc2ccc(CC3SC(=O)NC3=O)cc2)CCCCC1 (centres unmarked) [Ciglitazone, ciglitazone, reference compound]
Basal glucose uptake (C3H10T1/2 cells [1]; 5 × 10^−5 M): 496.178 ± 61.86 % of control

COc1ccc(C(=O)/C=C/c2c(CCN(C)C(C)=O)cc3c(c2OC)OCO3)cc1 [I-1]
glucose AUC of an OGTT (result in words) (C57BLKS/J db/db mice; 1 g glucose/kg body weight, day 10): significantly reduced | Glucose AUC (C57BLKS/J db/db mice; OGTT (1 g glucose/kg BW) on day 10, 0-180 min, 200 mg/kg BW/day orally, control 69673): 54295 | glucose levels of fasted animals (result in words) (C57BLKS/J db/db mice; after 10 days of treatment, compared to the untreated control group): decreased | free fatty acid (FFA) levels of fed animals (result in words) (C57BLKS/J db/db mice; [3]): lowered | glucose levels of fed animals (result in words) (C57BLKS/J db/db mice; [3]): lowered | blood glucose levels during the OGTT (result in words) (C57BLKS/J db/db mice; compared with the control group, 15-180 min after glucose challenge): lower at all time points | Blood Glucose Fasted (C57BLKS/J db/db mice; db/db mice, 200 mg/kg BW/day orally, after 10 days, overnight fasting, control 175): 135 mg/dL | FFA (C57BLKS/J db/db mice; db/db mice, 200 mg/kg BW/day orally, after 14 days, fed animals, control 15.95): 12.38 mg/dL | Blood Glucose Fed (C57BLKS/J db/db mice; db/db mice, 200 mg/kg BW/day orally, after 14 days, fed animals, control 859): 771 mg/dL | Basal glucose uptake (C3H10T1/2 cells [1]; 1 × 10^−5 M): 94.58 ± 0.95 % of control | Basal glucose uptake (C3H10T1/2 cells [1]; 1 × 10^−6 M): 97.6 ± 22.9 % of control | Basal glucose uptake (C3H10T1/2 cells [1]; 2.4 × 10^−5 M): 128.6 ± 0.89 % of control | Basal glucose uptake (C3H10T1/2 cells [1]; 5 × 10^−4 M): 194.058 ± 0.05 % of control | Basal glucose uptake (result in words) (C3H10T1/2 cells [1]): increased | Differentiation of the cells into adipocytes (result in words) (C3H10T1/2 cells [2]): higher differentiation of the cells into adipocytes than insulin alone | Mean OD ± SEM (oil Red O, 540 nm) (C3H10T1/2 cells [2]; [4]): 0.69 ± 0.019

COc1ccc(C(=O)/C=C/c2cccc(OC(=O)/C=C/c3ccccc3)c2)cc1 [I-2]
Differentiation of the cells into adipocytes (result in words) (C3H10T1/2 cells [2]): higher differentiation of the cells into adipocytes than insulin alone | Mean OD ± SEM (oil Red O, 540 nm) (C3H10T1/2 cells [2]; [4]): 0.45 ± 0.037

COc1ccc(/C=C/C(=O)c2ccc(OC(=O)c3ccccc3)cc2)cc1OC [I-3]
Basal glucose uptake (C3H10T1/2 cells [1]; 1 × 10^−5 M): 133.28 ± 23.4 % of control | Basal glucose uptake (C3H10T1/2 cells [1]; 1 × 10^−6 M): 105.37 ± 2.21 % of control | Basal glucose uptake (C3H10T1/2 cells [1]; 2 × 10^−4 M): 142.84 ± 18.05 % of control | Basal glucose uptake (C3H10T1/2 cells [1]; 5 × 10^−5 M): 116.17 ± 15.96 % of control | Basal glucose uptake (result in words) (C3H10T1/2 cells [1]): increase | Differentiation of the cells into adipocytes (result in words) (C3H10T1/2 cells [2]): higher differentiation of the cells into adipocytes than insulin alone | Mean OD ± SEM (oil Red O, 540 nm) (C3H10T1/2 cells [2]; [4]): 0.53 ± 0.025 | Mean OD ± SEM (oil Red O, 540 nm) (C3H10T1/2 cells [2]; compound 2 × 10^−4 M + insulin 1 × 10^−7 M): 0.34 ± 0.087 | Mean OD ± SEM (oil Red O, 540 nm) (C3H10T1/2 cells [2]; compound 5 × 10^−5 M + insulin 1 × 10^−7 M): 0.53 ± 0.017

Insulin: insulin alone, negative control of the adipocyte differentiation test
Mean OD ± SEM (oil Red O, 540 nm) (C3H10T1/2 cells [2]; insulin 1 × 10^−7 M alone (negative control)): 0.28 ± 0.03
